Where “and” joins values, the source holds several entries; their conditions need not be identical. Equal values may be shown once.
What was measured:
[1] = tested on: Candida albicans ATCC90028; assay: Radial diffusion assay (RDA), C. albicans; format: cell-based; parameters: unit not given here; details: Table 1c; for RDA Data (single replicates), C. albicans: individual values
Description: (§1) Peptides. Peptides were from Sigma-Genosys, generated by a peptide synthesis platform (PEPscreen®, Custom Peptide Libraries, SigmaGenosys). Yield was ˜1-6 mg, and peptide length 20 amino acids. MALDI-ToF Mass Spectrometry was perfomed on these peptides. Average Crude Purity of 20mers was ˜60%. Peptides were supplied lyophilized and in a 96-well tube rack. Prior to biological testing the PEPscreen peptides were diluted in dH2O (5 mM stock), and stored at −20 C. This stock solution was used for the subsequent experiments.
(§2) Eschericia coli ATCC25922, Staphylococcus aureus ATCC29213, and the fungal isolate Candida albicans ATCC90028 were obtained from the Department of Bacteriology, Lund University Hospital.
(§3) Radial diffusion assays (RDA) were performed essentially as described earlier (Lehrer, R. I., Rosenman, M., Harwig, S. S., Jackson, R. & Eisenhauer, P. (1991) Ultrasensitive assays for endogenous antimicrobial polypeptides, J Immunol Methods. 137, 167-73). Briefly, bacteria (E. coli, S. aureus) or fungi (C. albicans) were grown to midlogarithmic phase in 10 ml of full-strength (3% w/v) trypticase soy broth (TSB) (Becton-Dickinson, Cockeysville, Md.). The microorganisms were washed once with 10 mM Tris, pH 7.4. 4×10^6 bacterial cfu or 1×10^5 fungal cfu was added to 5 ml of the underlay agarose gel, consisting of 0.03% (w/v) TSB, 1% (w/v) low-electroendoosmosistype (Low-EEO) agarose (Sigma, St Louise Mo.) and a final concentration of 0.02% (v/v) Tween 20 (Sigma). The underlay was poured into a Ø 85 mm petri dish. After agarose solidified, 4 mm-diameter wells were punched and 6 μl of test sample was added to each well. Plates were incubated at 37° C. for 3 hours to allow diffusion of the peptides. The underlay gel was then covered with 5 ml of molten overlay (6% TSB and 1% Low-EEO agarose in dH2O). Antimicrobial activity of a peptide is visualized as a clear zone around each well after 18-24 hours of incubation at 37° C. for bacteria and 28° C. for Candida albicans. Other examples of peptides that were screened and found to show an increased effect against the above mentioned microorgansism are listed below. Some of the results are found in table 1c showing the effects against C. albicans, table 1d E. coli and table 1e S. aureus.

[2] = tested on: Staphylococcus aureus ATCC29213; assay: Radial diffusion assay (RDA), S. aureus; format: cell-based; parameters: Data (RDA antimicrobial activity, single replicates) / Mean (RDA antimicrobial activity): unit not given here; details: S. aureus; for Data (RDA antimicrobial activity, single replicates): individual replicate; for Mean (RDA antimicrobial activity): mean of 3
Description: as §1, §2, §3

[3] = tested on: Eschericia coli ATCC25922; assay: Radial diffusion assay (RDA), E. coli; format: cell-based, Escherichia coli; parameters: Data (RDA antimicrobial activity, single replicates) / Mean (RDA antimicrobial activity): unit not given here; details: E. coli; for Data (RDA antimicrobial activity, single replicates): individual replicate; for Mean (RDA antimicrobial activity): mean of 3
Description: as §1, §2, §3

PKR-21: growth factor derived peptide, untagged parent of PKR21WWW; sequence not printed (PKRKKKGGKNGKNRRNRKKKN; listed as Homo sapiens)
RDA Mean, C. albicans ([1]; peptide 0.1 μM): 0.00
RDA Data (single replicates), C. albicans ([1]; peptide 0.1 μM): 0.00
RDA Mean, C. albicans ([1]; peptide 0.5 μM): 0.00
RDA Data (single replicates), C. albicans ([1]; peptide 0.5 μM): 0.00
RDA Mean, C. albicans ([1]; peptide 1 μM): 0.00
RDA Data (single replicates), C. albicans ([1]; peptide 1 μM): 0.00
RDA Mean, C. albicans ([1]; peptide 5 μM): 0.00
RDA Data (single replicates), C. albicans ([1]; peptide 5 μM): 0.00
RDA Mean, C. albicans ([1]; peptide 10 μM): 0.46
RDA Data (single replicates), C. albicans ([1]; peptide 10 μM): 0.42 and 0.39 and 0.58
RDA Mean, C. albicans ([1]; peptide 50 μM): 4.04
RDA Data (single replicates), C. albicans ([1]; peptide 50 μM): 4.66 and 3.95 and 3.51
RDA Mean, C. albicans ([1]; peptide 100 μM): 4.59
RDA Data (single replicates), C. albicans ([1]; peptide 100 μM): 4.65 and 4.56 and 4.55
Data (RDA antimicrobial activity, single replicates) ([2]; peptide 0.1 μM): 0
Mean (RDA antimicrobial activity) ([2]; peptide 0.1 μM): 0.00
Data (RDA antimicrobial activity, single replicates) ([2]; peptide 0.5 μM): 0
Mean (RDA antimicrobial activity) ([2]; peptide 0.5 μM): 0.00
Data (RDA antimicrobial activity, single replicates) ([2]; peptide 1 μM): 0
Mean (RDA antimicrobial activity) ([2]; peptide 1 μM): 0.00
Data (RDA antimicrobial activity, single replicates) ([2]; peptide 5 μM): 0
Mean (RDA antimicrobial activity) ([2]; peptide 5 μM): 0.00
Data (RDA antimicrobial activity, single replicates) ([2]; peptide 10 μM): 0.17 and 0.4 and 0.77
Mean (RDA antimicrobial activity) ([2]; peptide 10 μM): 0.45
Data (RDA antimicrobial activity, single replicates) ([2]; peptide 50 μM): 1.06 and 1.6 and 1.24
Mean (RDA antimicrobial activity) ([2]; peptide 50 μM): 1.30
Data (RDA antimicrobial activity, single replicates) ([2]; peptide 100 μM): 2.63 and 2.54 and 1.84
Mean (RDA antimicrobial activity) ([2]; peptide 100 μM): 2.34
Data (RDA antimicrobial activity, single replicates) ([3]; peptide 0.1 μM): 0
Mean (RDA antimicrobial activity) ([3]; peptide 0.1 μM): 0.00
Data (RDA antimicrobial activity, single replicates) ([3]; peptide 0.5 μM): 0.3 and 0.7 and 0.58
Mean (RDA antimicrobial activity) ([3]; peptide 0.5 μM): 0.53
Data (RDA antimicrobial activity, single replicates) ([3]; peptide 1 μM): 0.56 and 0.97 and 1.02
Mean (RDA antimicrobial activity) ([3]; peptide 1 μM): 0.85
Data (RDA antimicrobial activity, single replicates) ([3]; peptide 5 μM): 0.63 and 1.65 and 0.55
Mean (RDA antimicrobial activity) ([3]; peptide 5 μM): 0.94
Data (RDA antimicrobial activity, single replicates) ([3]; peptide 10 μM): 0.94 and 1.08 and 1.02
Mean (RDA antimicrobial activity) ([3]; peptide 10 μM): 1.01
Data (RDA antimicrobial activity, single replicates) ([3]; peptide 50 μM): 1.16 and 1.52 and 1.01
Mean (RDA antimicrobial activity) ([3]; peptide 50 μM): 1.23
Data (RDA antimicrobial activity, single replicates) ([3]; peptide 100 μM): 1.34 and 1.37 and 1.39
Mean (RDA antimicrobial activity) ([3]; peptide 100 μM): 1.37

Reference: patent US8227406B2, “Antimicrobial peptides” (Dermagen AB, priority 2006, dated 2012)
